In ChEMBL document CHEMBL1201862, “PubChem BioAssay data set” (2004):
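Interpolation was linear, between the two tested concentrations surrounding the appropriate level; five concentrations were tested over 48 hours in 96-well plates. GI50 is the concentration that inhibits growth by half.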 The source made the active and inactive calls. Rule as the data show it: active = GI50 up to about 1.1 µM and inactive = higher.

Key:
Experiment in all cases: NCI tumour cell line growth inhibition, 48 h
HCC 2998 = test system: HCC 2998
SK-MEL-2 = test system: SK-MEL-2
SK-MEL-5 = test system: SK-MEL-5
TK-10 = test system: TK-10
RPMI-8226 = test system: RPMI-8226
ACHN = test system: ACHN
HL-60 = test system: HL-60
CCRF-CEM = test system: CCRF-CEM
HCT-116 = test system: HCT-116
MOLT-4 = test system: MOLT-4
NCI-H23 = test system: NCI-H23
HT-29 = test system: HT-29
NCI-H460 = test system: NCI-H460
OVCAR-5 = test system: OVCAR-5
BT-549 = test system: BT-549
EKVX = test system: EKVX
PC-3 = test system: PC-3
OVCAR-4 = test system: OVCAR-4
SF-268 = test system: SF-268
U-251 = test system: U-251
SK-OV-3 = test system: SK-OV-3
NCI-H522 = test system: NCI-H522
CAKI-1 = test system: CAKI-1
HCT-15 = test system: HCT-15
Hs-578T = test system: Hs-578T
786-0 = test system: 786-0
NCI/ADR-RES = test system: NCI/ADR-RES
SNB-19 = test system: SNB-19
A549 = test system: A549
UACC-62 = test system: UACC-62
MDA-MB-231 = test system: MDA-MB-231
OVCAR-3 = test system: OVCAR-3
MDA-MB-435 = test system: MDA-MB-435
HOP-92 = test system: HOP-92
SK-MEL-28 = test system: SK-MEL-28
MCF7 = test system: MCF7
T47D = test system: T47D
NCI-H226 = test system: NCI-H226
SN12C = test system: SN12C
OVCAR-8 = test system: OVCAR-8
SF-295 = test system: SF-295
MDA-N = test system: MDA-N
SF-539 = test system: SF-539
UACC-257 = test system: UACC-257
COLO 205 = test system: COLO 205
SW-620 = test system: SW-620
KM12 = test system: KM12
IGROV-1 = test system: IGROV-1
M14 = test system: M14
SNB-75 = test system: SNB-75
HOP-62 = test system: HOP-62
DU-145 = test system: DU-145
UO-31 = test system: UO-31
A498 = test system: A498
Malme-3M = test system: Malme-3M

## COP(=O)(OC)C12CCOCCN1c1ccccc1C2=O (stereo not given)
HCC 2998
  GI50: > 100 µM (inactive)
SK-MEL-2
  GI50: > 100 µM (inactive)
SK-MEL-5
  GI50: > 100 µM (inactive)
TK-10
  GI50: > 100 µM (inactive)
RPMI-8226
  GI50: > 100 µM (inactive)
ACHN
  GI50: > 100 µM (inactive)
HL-60
  GI50: > 100 µM (inactive)
CCRF-CEM
  GI50: > 100 µM (inactive)
HCT-116
  GI50: > 100 µM (inactive)
MOLT-4
  GI50: > 100 µM (inactive)
NCI-H23
  GI50: > 100 µM (inactive)
HT-29
  GI50: > 100 µM (inactive)
NCI-H460
  GI50: > 100 µM (inactive)
OVCAR-5
  GI50: > 100 µM (inactive)
BT-549
  GI50: > 100 µM (inactive)
EKVX
  GI50: > 100 µM (inactive)
PC-3
  GI50: > 100 µM (inactive)
OVCAR-4
  GI50: > 100 µM (inactive)
SF-268
  GI50: > 100 µM (inactive)
U-251
  GI50: > 100 µM (inactive)
SK-OV-3
  GI50: > 100 µM (inactive)
NCI-H522
  GI50: > 100 µM (inactive)
CAKI-1
  GI50: > 100 µM (inactive)
HCT-15
  GI50: > 100 µM
Hs-578T
  GI50: > 100 µM (inactive)
786-0
  GI50: > 100 µM (inactive)
NCI/ADR-RES
  GI50: > 100 µM (inactive)
SNB-19
  GI50: > 100 µM (inactive)
A549
  GI50: > 100 µM (inactive)
UACC-62
  GI50: > 100 µM (inactive)
MDA-MB-231
  GI50: > 100 µM (inactive)
OVCAR-3
  GI50: > 100 µM (inactive)
MDA-MB-435
  GI50: > 100 µM (inactive)
HOP-92
  GI50: > 100 µM (inactive)
SK-MEL-28
  GI50: > 100 µM (inactive)
MCF7
  GI50: > 100 µM (inactive)
T47D
  GI50: > 100 µM (inactive)
NCI-H226
  GI50: > 100 µM (inactive)
SN12C
  GI50: > 100 µM (inactive)
OVCAR-8
  GI50: > 100 µM (inactive)
SF-295
  GI50: > 100 µM (inactive)
MDA-N
  GI50: > 100 µM (inactive)
SF-539
  GI50: > 100 µM (inactive)
UACC-257
  GI50: > 100 µM (inactive)
COLO 205
  GI50: > 100 µM (inactive)
SW-620
  GI50: > 100 µM (inactive)
KM12
  GI50: > 100 µM (inactive)
IGROV-1
  GI50: > 100 µM (inactive)
M14
  GI50: > 100 µM (inactive)
SNB-75
  GI50: > 100 µM (inactive)
HOP-62
  GI50: > 100 µM (inactive)
DU-145
  GI50: > 100 µM (inactive)
UO-31
  GI50: > 100 µM (inactive)
A498
  GI50: > 100 µM (inactive)
Malme-3M
  GI50: > 100 µM (inactive)
